{"source": "paper PMC5321753", "about": "“Enhanced expression of ADCY1 underlies aberrant neuronal signalling and behaviour in a syndromic autism model” (Nature Communications, 2017)", "key": {"neuropathic pain": {"system": "neuropathic pain", "parameters": "method as in PMID 21228397", "details": "systemic administration; cited from earlier work"}, "WT and Fmr1 KO mice [1]": {"system": "WT and Fmr1 KO mice", "test": "Marble burying test", "type": "in vivo, mouse", "details": "NB001 1 mg kg^-1 IP, 1 h before testing", "description": "(§1) Repetitive behaviour was determined by the marble burying test as described. 3-month-(+/−10 days) old mouse was placed in a regular mouse cage filled with 7.6 cm-deep bedding for 1 h before the test. The mouse was then briefly removed from the testing box and 15 marbles were evenly arranged in a 5 × 3 pattern on the surface of the bedding. The mouse was reintroduced into the testing box and was allowed to bury marbles for 10 min. At the end of the testing period, the number of marbles that were fully buried, partially buried and left on the surface was counted.\n(§2) NB001 was dissolved in water to give a 25 mM stock solution. The stock was diluted in saline and IP injected into mice at 1 mg kg^−1 body weight. In all cases, the drug was administered 1 h before testing. Control mice were treated similarly but injected with saline."}, "ADCY1": {"system": "ADCY1", "parameters": "method as in PMID 21228397", "details": "intact cells; cited from earlier work"}, "ERK1/2": {"system": "ERK1/2", "test": "Immunoblot of phosphorylated and total ERK1/2 in hippocampus after i.p. injection", "type": "in vivo, mouse", "details": "NB001 1 mg kg^-1 IP", "description": "Hippocampal tissues were collected from 3-month-(+/−10 days) old mice. […] The primers used for Adcy1 were […] (forward) and […] (reverse). The protein levels in hippocampal tissues collected from mice were determined by western blot using anti-ADCY1 (Sigma, Cat # SAB4500146-100UG, 1:1,000 dilution), anti-p-ERK1/2 (Cell Signaling, Cat # 9101L, 1:1,000 dilution), anti-pAkt (Cell Signaling, Cat # 9271, 1:1,000 dilution), anti-pS6K1 (Cell Signaling, Cat # 9204L for the detection of phosphorylation at Thr421/Ser424, Cat # 9234S for the detection of phosphorylation at Thr389, 1:1,000 dilution), anti-ERK1/2 (Cell Signaling, Cat # 9102L, 1:1,000 dilution), anti-Akt (Cell Signaling, Cat # 9272S, 1:1,000 dilution), anti-S6K1 (Cell Signaling, Cat # 9202L, 1:1,000 dilution) and anti-β-actin antibody (Sigma, Cat # A5441; 1:5,000 dilution). Following incubations with infrared fluorescence (IRDye)-conjugated secondary antibodies (1:5,000, LI-COR Biosciences, Cat # 926–32211 and 926–68070), signals were detected using the Odyssey system (LI-COR Biosciences). The un-cropped western blots are shown in Supplementary Fig. 10.\nas §2"}, "mice": {"system": "mice", "test": "Clinical panel blood test after 14 days of NB001", "type": "in vivo, mouse", "description": "Mice at 3 months (+/−10 days) of age were IP injected with NB001 twice daily at 50 mg kg^−1 for 2 weeks. Clinical observations were performed twice daily and body weights were measured on various days during the dosing regimen. At the end of the dosing period, mice were killed and blood was collected for clinical pathology (Diagnostic Center for Population and Animal Health, Michigan State University). The liver and kidney were collected and fixed in 10% buffered formalin (INVIVO facility at Michigan State University)."}, "WT mice": {"system": "WT mice", "test": "Behavioural examinations in WT mice (Fig. 5e-h; Table 2)", "type": "in vivo, mouse", "details": "NB001 1 mg kg^-1 IP, marble burying, light/dark, social interaction, AGS", "description": "as §1\nLight/dark test was examined as described in our previous study. Light/dark test was performed using 3-month (+/−10 days) old mouse, which was first placed in the dark half of the chamber (Coulbourn Instruments). […] The time spent in each chamber and the number of entries into the lit side were recorded.\nAudiogenic seizures (AGS) were examined with 21- to 24-day-old-mouse (7), as this phenotype is dependent on the age of the mouse and only detected in juvenile Frm1 KO mouse. […] The number of mice undergoing seizure activity within the 2-min period was counted. […]\nSocial interaction was determined by the 3-chamber test as described. […] The entrances were then opened and the activity of the test mouse was recorded. Time spent in each of the chambers and time spent sniffing the stranger mouse enclosure versus the empty enclosure were recorded. […]"}, "WT and Fmr1 KO mice [2]": {"system": "WT and Fmr1 KO mice", "test": "Light/dark test", "type": "in vivo, mouse", "description": "Light/dark test was examined as described in our previous study. Light/dark test was performed using 3-month (+/−10 days) old mouse, which was first placed in the dark half of the chamber (Coulbourn Instruments). After 1 min of habituation, the trap door was opened and the mouse was allowed to move freely between the two chambers for 5 min. The time spent in each chamber and the number of entries into the lit side were recorded.\nas §2\nTo inhibit phosphodiesterase (PDE), rolipram was dissolved in 10% kolliphore and IP injected into mice at 0.5 or 0.03 mg kg^−1. The use of the higher dose (that is, 0.5 mg kg^−1) was to ensure sufficient inhibition of PDE[44][45]. […] Rolipram- or vehicle (10% kolliphore)-injected mice were examined with light/dark test and AGS 30 min after drug administration."}, "[3]": {"details": "blood, NB001 50 mg per kg twice per day for 14 days"}, "[4]": {"details": "blood, NB001 50 mg per kg twice per day for 14 days, mean ± SEM"}}}
{"smiles": "Nc1ncnc2c1ncn2CCNCCCCCO", "note": "[NB001, 5-{[2-(6-amino-9H-purin-9-yl)ethyl]amino}-1-pentanol]", "values": [{"measurement": "neuropathic pain", "setting": "neuropathic pain", "value": "attenuates"}, {"measurement": "marble burying behaviour, NB001-injected Fmr1 KO versus WT mice", "setting": "WT and Fmr1 KO mice [1]", "value": "comparable"}, {"measurement": "inhibition of ADCY1 activity versus other types of adenylyl cyclases", "setting": "ADCY1", "value": "preferentially inhibits ADCY1 activity over other types of adenylyl cyclases"}, {"measurement": "elevated level of p-ERK1/2 in the hippocampus", "setting": "ERK1/2; Fmr1 KO mice, 1 h after injection, relative to WT levels", "value": "normalized"}, {"measurement": "phosphorylation of ERK1/2 in WT mice", "setting": "ERK1/2; WT mice, hippocampus", "value": "did not cause measurable changes"}, {"measurement": "concentrations of various electrolytes and levels of the main toxicity-related proteins (such as aminotransferases)", "setting": "mice; NB001 50 mg kg^-1 twice a day for 14 days", "value": "no effect"}, {"measurement": "ALT", "setting": "mice; alanine aminotransferase, blood, NB001 50 mg per kg twice per day for 14 days, mean ± SEM", "value": "18.50 ±0.96", "unit": "U/L"}, {"measurement": "ALP", "setting": "mice; alkaline phosphatase, blood, NB001 50 mg per kg twice per day for 14 days, mean ± SEM", "value": "62.75 ±4.48", "unit": "U/L"}, {"measurement": "AST", "setting": "mice; aspartate aminotransferase, blood, NB001 50 mg per kg twice per day for 14 days, mean ± SEM", "value": "32.50 ±1.55", "unit": "U/L"}, {"measurement": "Hemolysis Chem", "setting": "mice; [3]", "value": "Normal"}, {"measurement": "Icterus Chem", "setting": "mice; [3]", "value": "Normal"}, {"measurement": "Lipemia Chem", "setting": "mice; [3]", "value": "Normal"}, {"measurement": "Albumin", "setting": "mice; [4]", "value": "2.65 ± 0.13", "unit": "g/dL"}, {"measurement": "Amylase", "setting": "mice; [4]", "value": "586.50 ±29.02", "unit": "U/L"}, {"measurement": "Anion Gap", "setting": "mice; [4]", "value": "29.50 ± 2.36", "unit": "mmol/L"}, {"measurement": "Calcium", "setting": "mice; [4]", "value": "8.83 ± 0.20", "unit": "mg/dL"}, {"measurement": "Chol", "setting": "mice; [4]", "value": "100.00 ± 5.96", "unit": "mg/dL"}, {"measurement": "Glucose", "setting": "mice; [4]", "value": "216.50 ± 8.50", "unit": "mg/dL"}, {"measurement": "Magnesium", "setting": "mice; [4]", "value": "2.60 ± 0.11", "unit": "mg/dL"}, {"measurement": "Na/K Ratio", "setting": "mice; [4]", "value": "32.00 ±1.47"}, {"measurement": "Osmolarity", "setting": "mice; [4]", "value": "321.00 ±4.00", "unit": "mOs/L"}, {"measurement": "Phosphorus", "setting": "mice; [4]", "value": "6.50 ± 0.24", "unit": "mg/dL"}, {"measurement": "Potassium", "setting": "mice; [4]", "value": "4.73 ± 0.22", "unit": "mmol/L"}, {"measurement": "Sodium", "setting": "mice; [4]", "value": "150.50 ± 1.50", "unit": "mmol/L"}, {"measurement": "Total CO2", "setting": "mice; [4]", "value": "13.50 ± 1.04", "unit": "mmol/L"}, {"measurement": "Urea Nitrogen", "setting": "mice; [4]", "value": "24.50 ± 0.87", "unit": "mg/dL"}, {"measurement": "behaviour in WT mice", "setting": "WT mice", "value": "did not cause measurable changes"}, {"measurement": "transition between the light and dark chambers, NB001-injected Fmr1 KO versus WT mice", "setting": "WT and Fmr1 KO mice [2]; NB001 1 mg kg^-1 IP, 1 h before testing", "value": "comparable"}, {"measurement": "time spent in the lit chamber, difference between groups", "setting": "WT and Fmr1 KO mice [2]; WT and Fmr1 KO mice, vehicle or 1 mg per kg NB001", "value": "not significant"}]}
